From PMC4941764, “Identification of 4-aminoquinoline core for the design of new cholinesterase inhibitors” (PeerJ, 2016)

Target: T1, acetylcholinesterase (eeAChE) (Electrophorus electricus, UniProt O42275)
T1 construct: gene ache
Test: Ellman assay, single concentration ([…])
Type: biochemical

T1 sequence (O42275 24-633): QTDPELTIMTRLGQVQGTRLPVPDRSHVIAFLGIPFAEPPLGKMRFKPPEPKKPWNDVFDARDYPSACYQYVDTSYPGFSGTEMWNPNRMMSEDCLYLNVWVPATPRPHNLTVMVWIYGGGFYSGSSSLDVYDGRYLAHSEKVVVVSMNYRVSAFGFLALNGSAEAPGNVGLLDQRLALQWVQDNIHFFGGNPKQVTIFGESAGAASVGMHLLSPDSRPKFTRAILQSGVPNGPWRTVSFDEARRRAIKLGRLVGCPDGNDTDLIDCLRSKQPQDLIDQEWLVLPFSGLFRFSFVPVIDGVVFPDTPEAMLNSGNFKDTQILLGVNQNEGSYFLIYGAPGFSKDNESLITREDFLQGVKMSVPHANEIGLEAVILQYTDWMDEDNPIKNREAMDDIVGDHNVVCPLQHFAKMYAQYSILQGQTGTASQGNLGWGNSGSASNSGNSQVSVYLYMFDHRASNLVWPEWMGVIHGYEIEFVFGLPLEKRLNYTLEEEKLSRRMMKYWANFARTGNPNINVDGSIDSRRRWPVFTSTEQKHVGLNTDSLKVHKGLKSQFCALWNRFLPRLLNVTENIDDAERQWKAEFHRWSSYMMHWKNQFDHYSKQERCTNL

Nc1ccnc2ccccc12 [compound 03, 4-aminoquinoline]
inhibition at 10 µM: 68.3 ± 1.83%
